Data reported in patent US12275721B2, “Indazole carboxamides as kinase inhibitors” (BRISTOL-MYERS SQUIBB COMPANY, priority 2019, dated 2025).

Legend:
[1] = test system: MLKL phosphorylation in HT29-L23 human colorectal adenocarcinoma cells; assay: MLKL Phosphorylation High-Content Assay; assay type: cell-based; details: Homo sapiens, necroptosis induced with TNFα, SMAC mimetic and Z-VAD, 6 h, read-out: pMLKL (IC50)
Experimental: MLKL Phosphorylation High-Content Assay
HT29-L23 human colorectal adenocarcinoma cells were maintained in RPMI 1640 medium containing 10% heat-inactivated FBS, 1% Penicillin-Streptomycin and 10 mM HEPES. Cells were seeded at 2,000 cells/well in 384 well tissue culture-treated microplates (Greiner #781090-3B) and incubated at 37° C. (5% CO2/95% O2) for 2 d. On the day of the assay, the cells were treated with test compounds at final concentrations of 6.25 to 0.106 μM for 30 min at 37° C. (5% CO2/95% O2). Necroptopsis was induced using a mixture of human TNFα (35 ng/mL) (Peprotech #300-01A), SMAC mimetic (from US 2015/0322111 A1) (700 nM) and Z-VAD (140 nM) (BD pharmingen #51-6936). Following 6 h incubation at 37° C. (5% CO2/95% O2), the cells were fixed with 4% formaldehyde (ACROS 11969-0010) for 15 min at rt, then permeabilized with phosphate buffered saline (PBS) containing 0.2% Triton-X-100 for 10 min. MLKL phosphorylation was detected using anti-MLKL (phospho S358) antibody (Abcam #ab187091) (1:1000 dilution in Blocking Buffer [PBS supplemented with 0.1% BSA]) with ON incubation at 4° C. After washing three times in PBS, goat anti-rabbit Alexa-488 (1:1000 dilution) (Life Technologies, A1 1008) and Hoechst 33342 (Life Technologies, H3570) (1:2000 dilution) in Blocking Buffer were added for 1 h at rt. Following another three cycles of washes in PBS, the microplates were sealed, and cellular images were acquired in the Cellomics ArrayScan VTI high-content imager equipped with an X1 camera. Fluorescent images were taken using a 10× objective and the 386-23 BGRFRN_BGRFRN and 485-20 BGRFRN_BGRFRN filter sets, for nuclei and MLKL phosphorylation, respectively. The image sets were analyzed using the Compartmental Analysis Bioapplication software (Cellomics). The level of MLKL phosphorylation was quantified as MEAN_CircRingAvglntenRatio. The maximal inhibitory response was defined by the activity induced by Necls (CAS #: 852391-15-2, 6.25 μm). The IC50 value was defined as the concentration of compound that produces 50% of the maximal inhibition. The data were fitted using the 4-parameter logistic equation to calculate the IC50 and Ymax values.

[2] = molecular target: T1, His-GST-TVMV-hRIPK1(1-324) (Homo sapiens, UniProt Q13546); assay: RIPK1 HTRF Binding Assay; details: HTRF probe displacement, 1 h at rt
T1 construct: 1 nM His-GST-TVMV-hRIPK1(1-324) in FRET Buffer; made in house; host or cells: Spodoptera frugiperda (Sf9) insect cells, baculovirus (Bac-to-Bac)
T1 sequence (Q13546 1-324): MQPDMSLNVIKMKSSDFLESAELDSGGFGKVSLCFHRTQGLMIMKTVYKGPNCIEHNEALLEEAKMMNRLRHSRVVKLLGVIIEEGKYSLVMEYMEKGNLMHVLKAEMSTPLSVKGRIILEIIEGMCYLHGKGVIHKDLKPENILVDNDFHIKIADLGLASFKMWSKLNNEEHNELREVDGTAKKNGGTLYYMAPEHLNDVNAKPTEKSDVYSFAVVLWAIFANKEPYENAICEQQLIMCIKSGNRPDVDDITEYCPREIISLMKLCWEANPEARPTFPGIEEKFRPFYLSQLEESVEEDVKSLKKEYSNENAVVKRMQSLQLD
Experimental: A solution was prepared containing 0.2 nM Anti GST-Tb (Cisbio, 61GSTTLB), 90.6 nM probe and 1 nM His-GST-TVMV-hRIPK1(1-324) in FRET Buffer (20 mM HEPES, 10 mM MgCl2, 0.015% Brij-35, 4 mM DTT, 0.05 mg/mL BSA). Using Formulatrix Tempest, the detection antibody/enzyme/probe solution ([…]) was dispensed into wells of a 1536 plate (Black Low Binding Polystyrene 1536 Plate (Corning, 3724)) containing 10 nL of compounds of interest at appropriate concentration in DMSO. The plate was incubated at rt for 1 h. FRET was measured using the EnVision plate reader (Excitation: 340 nm, Emission: 520 nm/[…]). Total signal (0% inhibition) was calculated from wells containing 10 nL DMSO only.
Cloning and Baculovirus Expression of RIPK1 Construct
The coding region of human RIPK1(1-324) flanked by NdeI site at 5′ end and stop codon TGA and XhoI site at 3′ end was codon optimized and gene synthesized at GenScript USA Inc. (Piscataway, NJ) and subcloned into a modified pFastBac1 vector (Invitrogen, Carlsbad, CA) with N-terminal His-GST-TVMV tag, to generate His-GST TVMV-hRIPK1(1-324)-pFB. The fidelity of the synthetic fragment was confirmed by sequencing. Baculovirus was generated for the construct using the Bac-to-Bac baculovirus expression system (Invitrogen) according to the manufacturer's protocol. Briefly, recombinant bacmid was isolated from transformed DH10Bac E. coli competent cells 20 (Invitrogen) and used to transfect Spodoptera frugiperda (Sf9) insect cells (Invitrogen). Baculovirus was harvested 72 hours post transfection and a virus stock was prepared by infecting fresh Sf9 cells at a 1/1000 (v/v) ratio for 66 hours. For large scale protein production, Sf9 cells (Expression System, Davis, CA) grown in ESF921 insect medium (Expression System) at 2×10^6 cells/ml were infected with virus stock at a 1/100 (v/v) ratio for 66 hours. The production was carried out either at a 10 L scale in a 22 L cellbag (GE Healthcare Bioscience, Pittsburgh, PA) or at a 20 L scale in a 50 L cellbag using WAVE-Bioreactor System 20/50 (GE Healthcare Bioscience). The infected cells were harvested by centrifugation at 2000 rpm for 20 min at 4° C. in a SORVALL® RC12BP centrifuge. The cell pellets was stored at −70° C. before protein was purified.
Purification of His-GST-TVMV-hRIPK1(1-324)
RIPK1 containing cell paste was resuspended in 50 mM Tris pH 7.5, 150 mM NaCl, 10 mM imidazole, 5% glycerol, 5 mM MgSO4, 1 mM TCEP, 25 U/ml Benzonase, and Complete Protease Inhibitor tablets (1/50 ml, Roche Diagnostics, Indianapolis, IN). The cells were lysed by nitrogen cavitation using an unstirred pressure vessel @ 525 PSI (Parr Instrument Company, Moline, IL). The suspension was clarified by centrifugation at 136,000×g for 40 min, at 4° C. The lysate was decanted from the pellet and passed through a 5 ml NiNTA Superflow cartridge (Qiagen, Valencia, CA) using an AKTA Pure (GE Healthcare). Column was eluted with 10 CV linear gradient into 50 mM Tris 7.5, 150 mM NaCl, 500 mM imidazole, 5% glycerol, 1 mM TCEP. Peak fractions were pooled and loaded directly onto 5 ml GSTrap 4B column (GE Healthcare). Column was washed with 50 mM Tris 7.0, 150 mM NaCl, […], 1 mM DTT and eluted in 10 CV linear gradient into 50 mM Tris 8.0, 150 mM NaCl, 20 mM reduced glutathione, 50% glycerol, 1 mM DTT. Fractions identified by SDS-PAGE as containing RIPK1 were pooled and concentrated using 30 kDa MWCO spin concentrators (Amicon Ultra-15, Millipore, Billerica, MA) and loaded onto a HiLoad 26/600 Superdex 200 column (GE Healthcare) equilibrated in 25 mM Tris 7.5, 150 mM NaCl, 2 mM TCEP, […]. The RTPK1 protein eluted as a dimer off the SEC column. The yield was ˜8 mg/L with a purity […] as determined by Coomassie stain SDS-PAGE gel analysis. […] Protein was aliquoted and stored at −80° C. Using these assays, the IC50 values of the following compounds were determined.

Structure (SMILES)	IC50 [1] [nM]	IC50 [2] [nM]
CNC(=O)c1n[nH]c2cc(-c3nc(C)c(C(=O)NCCC(C)c4ccccc4)n3C)ccc12 (centres unmarked) [Example 27, 6-(1,4-dimethyl-5-((3-phenylbutyl)carbamoyl)-1H-imidazol-2-yl)-N-methyl-1H-indazole-3-carboxamide]	470	220
CNC(=O)c1n[nH]c2cc(-c3csc(C(=O)NCCC(C)c4ccccc4)c3)ccc12 (centres unmarked) [Example 2, N-methyl-6-(5-((3-phenylbutyl)carbamoyl)thiophen-3-yl)-1H-indazole-3-carboxamide]	8.2	6
CNC(=O)c1n[nH]c2cc(-c3nc(C(=O)NCC[C@@H](O)c4ccc(Cl)cc4)cs3)ccc12 [Example 22, (R)-N-(3-(4-chlorophenyl)-3-hydroxypropyl)-2-(3-(methylcarbamoyl)-1H-indazol-6-yl)thiazole-4-carboxamide]	1200	330
CNC(=O)c1n[nH]c2cc(-c3nc(C(=O)NCC[C@H](O)c4ccc(Cl)cc4)c(C)n3C)ccc12 [Example 34, (S)-6-(4-((3-(4-chlorophenyl)-3-hydroxypropyl)carbamoyl)-1,5-dimethyl-1H-imidazol-2-yl)-N-methyl-1H-indazole-3-carboxamide]	1700	760
CNC(=O)c1n[nH]c2cc(-c3cc(C)c(C(=O)NCC[C@@H](O)c4ccc(Cl)cc4)s3)ccc12 [Example 12, (R)-6-(5-((3-(4-chlorophenyl)-3-hydroxypropyl)carbamoyl)-4-methylthiophen-2-yl)-N-methyl-1H-indazole-3-carboxamide]	11	3.8
CNC(=O)c1n[nH]c2cc(-c3nc(C)c(C(=O)NCc4cc(C(F)(F)F)ccc4F)n3C)ccc12 [Example 30, 6-(5-((2-fluoro-5-(trifluoromethyl)benzyl)carbamoyl)-1,4-dimethyl-1H-imidazol-2-yl)-N-methyl-1H-indazole-3-carboxamide]	150	100
CNC(=O)c1n[nH]c2cc(-c3nc(C)c(C(=O)NCc4cc(C(F)(F)F)ccc4F)s3)ccc12 [Example 18, N-(2-fluoro-5-(trifluoromethyl)benzyl)-4-methyl-2-(3-(methylcarbamoyl)-1H-indazol-6-yl)thiazole-5-carboxamide]	9	15
CNC(=O)c1n[nH]c2cc(-c3nc(C(=O)NCC[C@H](O)c4ccc(Cl)cc4)cs3)ccc12 [Example 23, (S)-N-(3-(4-chlorophenyl)-3-hydroxypropyl)-2-(3-(methylcarbamoyl)-1H-indazol-6-yl)thiazole-4-carboxamide]	1600	120
CNC(=O)c1n[nH]c2cc(-c3nc(C(=O)NCc4cc(OC(F)(F)F)ccc4F)cs3)ccc12 [Example 20, N-(2-fluoro-5-(trifluoromethoxy)benzyl)-2-(3-(methylcarbamoyl)-1H-indazol-6-yl)thiazole-4-carboxamide]	810	400
CNC(=O)c1n[nH]c2cc(-c3nc(C)c(C(=O)NCc4cc(OC(F)(F)F)ccc4F)s3)ccc12 [Example 14, N-(2-fluoro-5-(trifluoromethoxy)benzyl)-4-methyl-2-(3-(methylcarbamoyl)-1H-indazol-6-yl)thiazole-5-carboxamide]	8	7
CNC(=O)c1n[nH]c2cc(-c3nc(C)c(C(=O)NCC[C@@H](O)c4ccc(Cl)cc4)n3C)ccc12 [Example 28, (R)-6-(5-((3-(4-chlorophenyl)-3-hydroxypropyl)carbamoyl)-1,4-dimethyl-1H-imidazol-2-yl)-N-methyl-1H-indazole-3-carboxamide]	2600	460
CNC(=O)c1n[nH]c2cc(-c3nc(C)c(C(=O)NCC[C@H](O)c4ccc(Cl)cc4)s3)ccc12 [Example 17, (S)-N-(3-(4-chlorophenyl)-3-hydroxypropyl)-4-methyl-2-(3-(methylcarbamoyl)-1H-indazol-6-yl)thiazole-5-carboxamide]	340	180
CNC(=O)c1n[nH]c2cc(-c3cc(C(=O)NC(C)CCc4ccccc4)n(C)n3)ccc12 (racemic) [Example 36, N-methyl-6-(1-methyl-5-((4-phenylbutan-2-yl)carbamoyl)-1H-pyrazol-3-yl)-1H-indazole-3-carboxamide]	600	–
CC(C)NC(=O)c1n[nH]c2cc(-c3ccc(C(=O)NCC[C@H](O)c4ccc(Cl)cc4)s3)ccc12 [Example 9, (S)-6-(5-((3-(4-chlorophenyl)-3-hydroxypropyl)carbamoyl)thiophen-2-yl)-N-isopropyl-1H-indazole-3-carboxamide]	500	–
